Laboratory results from patent US8685974B2 (Bayer CropScience AG, priority 2009, dated 2014).
Where two headings read alike, the source gives them in different places. Marks after values point to notes of the source that are not given here.

How the values were obtained:
Alternaria solani = test: Alternaria test (tomato) / protective; format: in vivo; conditions: 500 ppm active compound, protective spray, evaluated 7 days after inoculation
Description: Alternaria Test (Tomato)/Protective
Solvent: 49 parts by weight of N,N-dimethylformamide
Emulsifier: 1 part by weight of alkylaryl polyglycol ether
To produce a suitable preparation of active compound, 1 part by weight of active compound is mixed with the stated amounts of solvent and emulsifier, and the concentrate is diluted with water to the desired concentration.
To test for protective activity, young tomato plants are sprayed with the preparation of active compound at the stated application rate. […] The plants then remain at 96% rel. atmospheric humidity and a temperature of 20° C.
Evaluation is carried out 7 days after the inoculation. 0% means an efficacy which corresponds to that of the control, whereas an efficacy of 100% means that no infection is observed.

Pyrenophora teres = test: In vivo test on Pyrenophora teres (barley net blotch); conditions: dose of 500 ppm; barley plants; grading 12 days after contamination
Description: In Vivo Test on Pyrenophora teres (Barley Net Blotch)
The active ingredients tested are prepared by homogenization in a mixture of acetone/Tween/DMSO, then diluted with water to obtain the desired active material concentration.
Barley plants (Plaisant variety), sown on a 50/50 peat soil-pozzolana substrate in starter cups and grown at 12° C., are treated at the 1-leaf stage (10 cm tall) by spraying with the active ingredient prepared as described above.
Plants, used as controls, are treated with an aqueous solution not containing the active material.
After 24 hours, the plants are contaminated by spraying them with an aqueous suspension of Pyrenophora teres spores (12,000 spores per ml). The spores are collected from a 12-day-old culture. The contaminated barley plants are incubated for 24 hours at about 20° C. and at 100% relative humidity, and then for 12 days at 80% relative humidity.
Grading is carried out 12 days after the contamination, in comparison with the control plants.

Fusarium graminearum = format: cell-based; conditions: 50 μM; for % Inhibition of DON/AcDON at 50 μM: 7 days at 28° C.

| Compound | log p (physchem; pH 2.7) | chromatographic logP (physchem; pH 2.7) | chromatographic logP (physchem; pH 7.8) | efficacy (Alternaria solani) | protection (Pyrenophora teres) | % Inhibition of fungal growth at 50 μM (Fusarium graminearum) | % Inhibition of DON/AcDON at 50 μM (Fusarium graminearum) | log p (pH 2.7) | log p (pH 2.3) |
| --- | --- | --- | --- | --- | --- | --- | --- | --- | --- |
| CCCn1cc(I)c(-c2cc(C)cs2)n1 [4-Iodo-3-(4-methyl-2-thienyl)-1-propyl-1H-pyrazole] | 4.2 | – | – | – | – | – | – | – | – |
| CCC(C)n1ccc(-c2cccs2)n1 (stereo not shown) [1-sec-Butyl-3-(2-thienyl)-1H-pyrazole] | 3.1 | – | – | – | – | – | – | – | – |
| CC(C)n1ncc(-c2ccncc2)c1-c1ccc(F)s1 [4-[1-Isopropyl-5-(5-fluoro-2-thienyl)-1H-pyrazol-4-yl]pyridine] | 1.51 | – | – | – | – | – | – | – | – |
| CCC(C)n1nccc1-c1cccs1 (stereo not shown) [1-sec-Butyl-5-(2-thienyl)-1H-pyrazole] | 2.97 | – | – | – | – | – | – | – | – |
| CCn1cc(I)c(-c2cc(C)cs2)n1 [1-Ethyl-4-iodo-3-(4-methyl-2-thienyl)-1H-pyrazole] | 3.7 | – | – | – | – | – | – | – | – |
| CC(C)Cn1cc(-c2ccnc(Cl)c2)c(-c2ccc(Cl)s2)n1 [2-Chloro-4-[1-isobutyl-3-(5-chloro-2-thienyl)-1H-pyrazol-4-yl]pyridine] | 4.85 | – | – | – | – | – | – | – | – |
| CSc1nccc(CC(=O)c2ccc(Cl)s2)n1 [1-(5-Chloro-2-thienyl)-2-[2-(methylsulfanyl)pyrimidin-4-yl]ethanone] | 2.98 | – | – | – | – | – | – | – | – |
| CC(=O)Nc1nccc(-c2cn(C(C)C)nc2-c2ccc(Cl)s2)n1 [N-{4-[3-(5-Chloro-2-thienyl)-1-isopropyl-1H-pyrazol-4-yl]pyrimidin-2-yl}acetamide] | 2.59 | – | – | – | – | – | – | – | – |
| CCn1cc(-c2ccncc2)c(-c2cccs2)n1 [Example 148, 4-[1-Ethyl-3-(2-thienyl)-1H-pyrazol-4-yl]pyridine] | – | 0.75 | 2.06 | – | – | – | – | – | – |
| Cc1c(Br)c(-c2ccc(Cl)s2)nn1C [4-Bromo-3-(5-chloro-2-thienyl)-1,5-dimethyl-1H-pyrazole] | 3.92 | – | – | – | – | – | – | – | – |
| CCC(C)n1cc(-c2ccnc(NC(=O)CC3CC3)c2)c(-c2ccc(Cl)s2)n1 (stereo not shown) [Example 229] | – | – | – | 95% | 90% | 82% | 98% | 3.81^[b] | – |
| CCn1nccc1-c1cc(C)cs1 [1-Ethyl-5-(4-methyl-2-thienyl)-1H-pyrazole] | 2.68 | – | – | – | – | – | – | – | – |
| CCC(C)n1cc(-c2ccnc(NC(=O)CC(C)C)c2)c(-c2ccc(Cl)s2)n1 (stereo not shown) [Example 235] | – | – | – | 95% | 95% | 0% | 86% | 4.08^[b] | – |
| N#CCCn1cc(-c2ccncc2)c(-c2ccc(F)s2)n1 [Example 340] | – | – | – | 94% | 70% | 91% | 98% | 1.12^[b] | – |
| FC(F)Cn1cc(-c2ccncc2)c(-c2ccc(Cl)s2)n1 [Example 363] | – | – | – | 100% | 90% | 99% | 99% | 1.61^[b] | – |
| CCOCCn1cc(-c2ccncc2)c(-c2ccc(Cl)s2)n1 [Example 364] | – | – | – | 100% | 70% | 100% | 99% | 1.69^[b] | – |
| CC(=O)N(C(C)=O)c1cc(-c2cn(/C=C/F)nc2-c2ccc(Cl)s2)ccn1 [Example 297] | – | – | – | 90% | 80% | 0% | 100% | 3.09^[b] | – |
| CC(C)n1cc(-c2ccnc(NC(=O)[C@H](C)O)c2)c(-c2ccc(Cl)s2)n1 [Example 205] | – | – | – | 90% | 95% | 84% | 98% | 2.75^[b] | – |
| CC(=O)N(C(C)=O)c1cc(-c2cn(C)nc2-c2ccc(Cl)s2)ccn1 [Example 303] | – | – | – | 95% | 70% | 83% | 100% | 2.52^[b] | – |
| CCC(C)n1cc(-c2ccnc(NC(=O)N(C)C)c2)c(-c2ccc(Cl)s2)n1 (stereo not shown) [Example 227] | – | – | – | 80% | 95% | 100% | 99% | 2.19^[b] | – |

| Compound | log p (physchem; pH 2.7) | chromatographic logP (physchem; pH 2.7) | chromatographic logP (physchem; pH 7.8) | efficacy (Alternaria solani) | protection (Pyrenophora teres) | % Inhibition of fungal growth at 50 μM (Fusarium graminearum) | % Inhibition of DON/AcDON at 50 μM (Fusarium graminearum) | log p (pH 2.7) | log p (pH 2.3) |
| --- | --- | --- | --- | --- | --- | --- | --- | --- | --- |
| COCC(=O)Nc1cc(-c2cn(C)nc2-c2ccc(Cl)s2)ccn1 [Example 276] | – | – | – | 90% | 80% | 98% | 98% | 2.4^[b] | – |
| Cc1ccc(-c2nn(C(C)C)cc2-c2ccncc2)s1 [Example 199] | – | – | – | 89% | 95% | 100% | 99% | 1.5^[b] | – |
| CC(=O)Nc1cc(-c2cn(/C=C/F)nc2-c2ccc(Cl)s2)ccn1 [Example 293] | – | – | – | 80% | 90% | 32% | 100% | 2.52^[b] | – |
| CCn1cc(-c2ccnc(NC(=O)Cc3ccccc3)c2)c(-c2ccc(Cl)s2)n1 [Example 262] | – | – | – | 80% | 90% | – | – | 3.48^[b] | – |
| CC(C)OC(=O)Nc1cc(-c2cn(C)nc2-c2ccc(Cl)s2)ccn1 [Example 274] | – | – | – | 80% | 80% | – | – | 2.9^[b] | – |
| CCC(C)n1cc(-c2ccnc(NC3COC3)n2)c(-c2ccc(Cl)s2)n1 (stereo not shown) [Example 194] | – | – | – | 95% | 100% | 90% | 99% | – | 3.09^[a] |
| CCn1cc(-c2ccnc(NC(=O)CC3CC3)c2)c(-c2ccc(Cl)s2)n1 [Example 253] | – | – | – | 95% | 100% | 100% | 99% | 2.94^[b] | – |
| CCC(C)n1cc(-c2ccnc(NC(=O)[C@H](C)O)c2)c(-c2ccc(Cl)s2)n1 (stereo partly shown) [Example 204] | – | – | – | 80% | 80% | 56% | 95% | 3.13^[b] | – |
| CCC(C)C(=O)Nc1cc(-c2cn(C(C)CC)nc2-c2ccc(Cl)s2)ccn1 (stereo not shown) [Example 228] | – | – | – | 70% | 90% | 49% | 92% | 4.05^[b] | – |
| CCOC(=O)Nc1cc(-c2cn(C(C)CC)nc2-c2ccc(Cl)s2)ccn1 (stereo not shown) [Example 236] | – | – | – | 80% | 95% | – | – | 3.92^[b] | – |
| CC(C)CC(=O)Nc1cc(-c2cn(C)nc2-c2ccc(Cl)s2)ccn1 [Example 270] | – | – | – | 95% | 95% | 49% | 98% | 2.75^[b] | – |
| CCC(C)n1cc(-c2ccnc(NC(=O)C3CCC3)c2)c(-c2ccc(Cl)s2)n1 (stereo not shown) [Example 240] | – | – | – | 95% | 90% | 37% | 99% | 3.81^[b] | – |
| CC(C)n1cc(-c2ccnc(NC(=O)C(C)(C)C)c2)c(-c2ccc(Cl)s2)n1 [Example 233] | – | – | – | 90% | 90% | – | – | 3.87^[b] | – |
| CCC(C)n1cc(-c2ccnc(NC(=O)Cc3ccccc3)c2)c(-c2ccc(Cl)s2)n1 (stereo not shown) [Example 224] | – | – | – | 80% | 95% | – | – | 4.35^[b] | – |
| CC(C)n1cc(-c2ccnc(NC(=O)CC3CC3)c2)c(-c2ccc(Cl)s2)n1 [Example 250] | – | – | – | 90% | 100% | 29% | 99% | 3.37^[b] | – |
| CCC(C)n1cc(-c2ccnc(NC(=O)COC)c2)c(-c2ccc(Cl)s2)n1 (stereo not shown) [Example 223] | – | – | – | 95% | 95% | 79% | 99% | 3.68^[b] | – |
| CC(=O)N(C(C)=O)c1cc(-c2cnn(/C=C/F)c2-c2ccc(Cl)s2)ccn1 [Example 291] | – | – | – | 90% | 95% | 18% | 100% | 3.39^[b] | – |
| CCn1cc(-c2ccnc(NC(=O)COC)c2)c(-c2ccc(Cl)s2)n1 [Example 261] | – | – | – | 90% | 90% | 96% | 98% | 2.78^[b] | – |
| Cn1cc(-c2ccnc(NC(=O)c3ccsc3)c2)c(-c2ccc(Cl)s2)n1 [Example 282] | – | – | – | 80% | 70% | – | – | 2.88^[b] | – |
| N#CCCn1cc(-c2ccncc2)c(-c2ccc(Br)s2)n1 [Example 350] | – | – | – | 80% | 90% | 92% | 99% | 1.42^[b] | – |
